Common to all, as to assay: NCI tumour cell line growth inhibition, 48 h
Assay [1] deals with HOP-62 NSCLC.
In assay [2] the test system is NCI-H460 lung.
In assay [3] the test system is OVCAR-4 ovarian.
For assay [4], the system named is A498 renal.
For assay [5], the system named is P388/ADR leukemia.
Assay [6] concerns SF-539 CNS.
In assay [7] the test system is SK-OV-3 ovarian.
Assay [8] has as its system DLD-1 colon.
The subject of assay [9] is OVCAR-8 ovarian.
Assay [10] concerns HCT-15 colon.
Assay [11] relates to IGROV1 ovarian.
Assay [12] has as its system KM12 colon.
The subject of assay [13] is KM20L2 colon.
The subject of assay [14] is MCF7 breast.
Assay [15] deals with NCI/ADR-RES ovarian.
Assay [16] concerns P388 leukemia.
The test system of assay [17] is SK-MEL-28 melanoma.
The test system of assay [18] is SN12K1 renal.
Assay [19] relates to ACHN renal.
Assay [20] concerns SR leukemia.

This is an account of results in PubChem BioAssay (NCI).

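Method: 48-hour compound exposure of cells in 96-well plates, five concentrations, linear interpolation of endpoints. At the TGI there is no net growth.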

For `Cc1ccccc1-c1nc2c(C(=O)NCCN(C)C)cccc2[nH]1`, the TGI was over 87.3 µM in [1]; over 100 µM in assay [2]; over 100 µM in assay [3]; over 100 µM in [4]; over 100 µM in assay [5]; over 100 µM in assay [6]. Moreover, the TGI in [7], in assay [8], in [9], in assay [10], in assay [11] and in assay [12] was over 100 µM each time. Besides, the TGI in assay [13] was over 100 µM; in [14], over 100 µM; in [15], over 100 µM; in [16], 44.3 µM; in [17] it was over 100 µM; in assay [18] it was over 100 µM.
For the compound `Cc1cc(=O)[nH]c(NN2C(Cl)C(=O)C2c2ccc([N+](=O)[O-])cc2)n1` (centres undefined), the TGI came out at 23 µM in assay [1]; 18.8 µM in assay [2]; 28.8 µM in assay [3]; 27 µM in assay [6]; 82.5 µM in assay [9]; 22.5 µM in assay [10]. Moreover, the TGI in assay [11] turned out to be 16.1 µM; in [13], 56.7 µM; in assay [19] it was 33.7 µM; in [17], 27.1 µM; in [20], 34.5 µM.
As to `COc1ccc(-c2oc3cc(O)cc(O)c3c(=O)c2OC)cc1`, the TGI was over 100 µM in assay [1]; 65.6 µM in assay [2]; over 100 µM in assay [3]; 66.8 µM in [4]; over 100 µM in assay [7]; over 100 µM in assay [9]. In addition, the TGI in assay [10], in assay [11], in assay [19], in assay [14], in assay [15] and in assay [17] was over 100 µM in each case. For the same compound, in [20], the TGI is over 100 µM.
For `C=CCP(=O)(CC=C)C(Cl)Cl`, the TGI in [1], in assay [2], in [3], in [7], in assay [9] and in [10] was over 100 µM throughout. Further, the TGI in assay [11], in assay [19], in assay [14], in assay [15], in assay [17] and in [20] was over 100 µM throughout.
`COc1cccc(N[C@@H]2c3cc4c(cc3C(c3cc(OC)c(O)c(OC)c3)[C@H]3C(=O)OCC32)OCO4)c1` (some centres undefined): the TGI in assay [1] turned out to be 0.671 µM; in assay [2], 1.6 µM; in assay [3], 87.9 µM; in assay [4], 2.1 µM; in [5], 0.984 µM; in [6], 2.52 µM. Moreover, the TGI is 17.9 µM in assay [7]; 8.35 µM in [8]; over 23.1 µM in assay [9]; 2.39 µM in [10]; 33.8 µM in assay [11]; 7.06 µM in assay [12]. The TGI is over 29.4 µM in assay [13]; 14.4 µM in assay [14]; over 70.2 µM in assay [15]; 0.385 µM in assay [16]; over 61.2 µM in assay [17]; 9.55 µM in assay [18].
In the case of `O=C(O)c1ccccc1N=Cc1ccc(N(CCCl)CCCl)cc1`, the TGI in assay [2] was over 100 µM; in [3] it was over 100 µM; in [4], over 57.7 µM; in [5], over 100 µM; in assay [6] it was over 100 µM; in assay [7], over 100 µM. The TGI in assay [8], in assay [9], in assay [10], in [11], in assay [12] and in assay [13] was over 100 µM each time. Also, the TGI in assay [14], in assay [15], in assay [16], in assay [17] and in assay [18] was over 100 µM throughout.
